Laboratory results published in US11198678B1, “Plakortinic acids A and B: cytotoxic cycloperoxides with a unique bicyclo[4.2.0]octene unit from sponges of the genera Plakortis and Xestospongia” (University of Puerto Rico, priority 2016, dated 2021).

Legend:
[1] = system: DU-145 human prostate cancer cells; assay: MTS cell viability (cytotoxicity) assay, DU-145 prostate cancer cells; type: cell-based; conditions: 48 h treatment
Description: (§1) DU-145 human prostate cancer and A2058 melanoma cell lines were obtained from ATCC. These cells were cultured in RPMI-1640 or DMEM medium containing 10% fetal bovine serum (FBS), 100 units/mL penicillin, and 100 μg/mL streptomycin. All cells were maintained in a 5% CO2 atmosphere at 37° C. To determine the viability of the cells, Promega CellTiter 96 aqueous nonradioactive cell proliferation assays (MTS) were performed as described by the supplier (Promega; Madison, Wis.). Briefly, cells (5000/well) were seeded in 96-well plates and incubated overnight at 37° C. in 5% CO2. Cells were treated for 48 h with each compound. The concentration used was 10 μM. Dimethyl sulfoxide (DMSO) was used as the vehicle control. IC50 values of compounds were determined in a dose-dependent manner (0.1, 0.5, 1, 5, 10, 20, and 50 μM). Cell viability was determined by tetrazolium conversion to its formazan dye, and absorbance of formazan was measured at 490 nm using an automated ELISA plate reader. The production of formazan dye was directly proportional to the number of living cells. Each experiment was done in quadruplicate in the absence of a positive control.

[2] = system: A2058 melanoma cells; assay: MTS cell viability (cytotoxicity) assay, A2058 melanoma cells; type: cell-based, human; conditions: 48 h treatment
Description: as §1

Row | Substance | IC50 [1] [µM] | IC50 [2] [µM]
1 | plakortinic acid A [compound 2] | 0.5 | 0.3
2 | plakortinic acid B methyl ester [compound 4] | 5.9 | 4.7
